Laboratory results reported in paper PMC10415144, “Structural insights into CodY activation and DNA recognition” (Nucleic Acids Research, 2023).

Legend:
SaCodY [1] = target: T1, SaCodY (Staphylococcus aureus, UniProt Q2FHI3); assay: X-ray crystal structure of complex; assay type: binding
T1 construct: gene codY; full-length; expressed in E. coli BL21(DE3)pLysS; N-terminal His6-tag cut with TEV protease, Gly-Ala remnant before start Met

EfCodY [2] = target: T2, EfCodY (Enterococcus faecalis, UniProt Q834K5); assay: bio-layer interferometry, reduction of Leu-activated binding to hutP operator DNA; assay type: biochemical; conditions: 2 mM GTP with 10 mM Leu; pH 8, 2 mM MgCl2, 25 °C; negative effect, binding to protein only presumed
T2 construct: gene codY; full-length; expressed in E. coli BL21(DE3)pLysS; N-terminal His6-tag cut with TEV protease, Gly-Ala remnant before start Met; two dimers on 30-bp DNA
T2 sequence (Q834K5 entry or part of it): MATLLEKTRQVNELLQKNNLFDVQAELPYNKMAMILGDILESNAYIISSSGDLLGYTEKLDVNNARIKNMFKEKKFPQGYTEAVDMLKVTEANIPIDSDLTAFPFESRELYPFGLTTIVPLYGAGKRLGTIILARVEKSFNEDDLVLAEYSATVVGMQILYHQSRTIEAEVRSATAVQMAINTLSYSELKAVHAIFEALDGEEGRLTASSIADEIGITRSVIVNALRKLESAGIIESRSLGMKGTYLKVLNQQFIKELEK

SaCodY [3] = target: T1, SaCodY; assay: bio-layer interferometry, activation of binding to hutP operator DNA; assay type: biochemical; conditions: 10 mM Leu with 2 mM GTP; pH 8, 2 mM MgCl2, 25 °C; allosteric activator
EfCodY [4] = target: T2, EfCodY; assay: Leu binding assay (method in supplement); conditions: compared with Lys74Ala mutant; details only in supplement
EfCodY [5] = target: T2, EfCodY; assay: X-ray crystal structure of complex; assay type: binding; conditions: co-crystal with 30-bp DNA; 4 mM Leu; GAF domain BCAA site of protomers A and B only

T1 sequence (Q2FHI3 whole entry): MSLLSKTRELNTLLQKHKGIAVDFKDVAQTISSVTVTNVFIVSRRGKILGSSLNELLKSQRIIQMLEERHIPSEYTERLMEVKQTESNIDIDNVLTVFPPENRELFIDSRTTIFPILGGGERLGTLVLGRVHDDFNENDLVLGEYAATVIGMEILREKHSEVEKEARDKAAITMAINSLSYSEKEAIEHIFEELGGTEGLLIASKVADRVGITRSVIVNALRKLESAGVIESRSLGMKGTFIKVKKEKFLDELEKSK

SMILES: Nc1nc2c(ncn2[C@@H]2O[C@H](COP(=O)(O)OP(=O)(O)OP(=O)(O)O)[C@@H](O)[C@H]2O)c(=O)[nH]1 [GTP]
- X-ray crystal structure of complex (SaCodY [1]; co-crystal with Ile and 30-bp DNA, 2 mM GTP, GAF domain near dimer interface, allosteric): The SaCodY-DNA complex was co-crystallized with Ile and GTP
- bio-layer interferometry, reduction of Leu-activated binding to hutP operator DN (EfCodY [2]): Together with Leu, GTP reduced activation, presumably by interacting with the protein

SMILES: CC[C@H](C)[C@H](N)C(=O)O [Ile]
- X-ray crystal structure of complex (SaCodY [1]; co-crystal with GTP and 30-bp DNA, 20 mM Ile, GAF domain BCAA site): The SaCodY-DNA complex was co-crystallized with Ile and GTP

SMILES: CC(C)C[C@H](N)C(=O)O [Leu]
- bio-layer interferometry, activation of binding to hutP operator DNA (SaCodY [3]): SaCodY was activated by Ile (and to a lesser extent by Leu) and GTP
- affinity (EfCodY [4]): the mutant binds Leu with comparable affinity to the wild type
- X-ray crystal structure of complex (EfCodY [5]): EfCodY complex was co-crystallized in the presence of Leu, yet Leu bound only to protomers
